In PubChem BioAssay AID1963861 (Molecular Pharmacology Branch, DTP, NCI, 2024):

System: 885724-159-R-J1-PDC KRAS PDC multicell spheroid viability
Assay: Anticancer human tumor 885724-159-R-J1-PDC patient-derived pancreatic adenocarcinoma cell line growth inhibition [KRAS2]
Details: for IC50: curve of first compound; for viability, T/C: stronger effect = lower value; active = viability on the fitted dose curve at most 10% of control; inactive = the rest
Method in brief: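 KRAS-mutant tumor cells were grown as spheroids with HUVEC endothelial cells and human MSCs as stroma. Targeted agents were tested alone and with KRAS pathway inhibitors. Doses started at or near clinical Cmax, or 10 microM, descending half-log.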

[1] = second compound 0.0316 µM, first compound 0.0316 µM
[2] = second compound 0.0316 µM, first compound 0.1 µM
[3] = second compound 0.0316 µM, first compound 0.316 µM
[4] = second compound 0.0316 µM, first compound 1 µM
[5] = second compound 0.0316 µM, first compound 3.16 µM
[6] = second compound 0.1 µM, first compound 0.01 µM
[7] = second compound 0.1 µM, first compound 0.0316 µM
[8] = second compound 0.1 µM, first compound 0.1 µM
[9] = second compound 0.1 µM, first compound 0.316 µM
[10] = second compound 0.1 µM, first compound 1 µM
[11] = second compound 0.1 µM, first compound 3.16 µM
[12] = second compound 0.316 µM, first compound 0.01 µM
[13] = second compound 0.316 µM, first compound 0.0316 µM
[14] = second compound 0.316 µM, first compound 0.1 µM
[15] = second compound 0.316 µM, first compound 0.316 µM
[16] = second compound 0.316 µM, first compound 1 µM
[17] = second compound 0.316 µM, first compound 3.16 µM
[18] = second compound 1 µM, first compound 0.01 µM
[19] = second compound 1 µM, first compound 0.0316 µM
[20] = second compound 1 µM, first compound 0.1 µM
[21] = second compound 1 µM, first compound 0.316 µM
[22] = second compound 1 µM, first compound 1 µM
[23] = second compound 1 µM, first compound 3.16 µM
[24] = second compound 3.16 µM, first compound 0.01 µM
[25] = second compound 3.16 µM, first compound 0.0316 µM
[26] = second compound 3.16 µM, first compound 0.1 µM
[27] = second compound 3.16 µM, first compound 0.316 µM
[28] = second compound 3.16 µM, first compound 1 µM
[29] = second compound 3.16 µM, first compound 3.16 µM
[30] = second compound 0.0316 µM, first compound 10 µM
[31] = second compound 0.1 µM, first compound 10 µM
[32] = second compound 0.316 µM, first compound 10 µM
[33] = second compound 1 µM, first compound 10 µM
[34] = second compound 3.16 µM, first compound 10 µM
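Note: spheroids exposed to agents for 7 days before readout.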

CC1COCCN1c1cc(-c2ccnn2C)c2ccnc(-c3ccn[nH]3)c2n1 (stereo not given) + C=CC(=O)N1CCN(c2nc(OCC3CCCN3C)nc3c2CCN(c2cccc4cccc(C)c24)C3)CC1CC#N
0.017 µM: IC50 (second compound 3.16 µM)
inactive: viability, T/C (second compound 0.0316 µM, first compound 0.01 µM) 102% | viability, T/C [1] 77.8% | viability, T/C [2] 64.8% | viability, T/C [3] 58.8% | viability, T/C [4] 48.8% | viability, T/C [5] 49.3% | viability, T/C [6] 103% | viability, T/C [7] 83.7% | viability, T/C [8] 65.5% | viability, T/C [9] 54.5% | viability, T/C [10] 45.8% | viability, T/C [11] 51.2% | viability, T/C [12] 95% | viability, T/C [13] 74.6% | viability, T/C [14] 60.8% | viability, T/C [15] 54.6% | viability, T/C [16] 46.4% | viability, T/C [17] 47.8% | viability, T/C [18] 85% | viability, T/C [19] 76.3% | viability, T/C [20] 59.7% | viability, T/C [21] 51.5% | viability, T/C [22] 41.6% | viability, T/C [23] 42.4% | viability, T/C [24] 53.4% | viability, T/C [25] 46.5% | viability, T/C [26] 37.2% | viability, T/C [27] 33.5% | viability, T/C [28] 25.4% | viability, T/C [29] 23.4%
0.298 µM: IC50 (second compound 1 µM)
0.723 µM: IC50 (second compound 0.316 µM)
0.909 µM: IC50 (second compound 0.1 µM)
1.79 µM: IC50 (second compound 0.0316 µM)

CC1OCC2(CCN(c3cnc(Sc4ccnc(N)c4Cl)c(N)n3)CC2)C1N (stereo not given) + C=CC(=O)N1CCN(c2nc(OCC3CCCN3C)nc3c2CCN(c2cccc4cccc(C)c24)C3)CC1CC#N
inactive: viability, T/C [1] 97% | viability, T/C [2] 85.7% | viability, T/C [3] 76.6% | viability, T/C [4] 68.4% | viability, T/C [5] 69.7% | viability, T/C [30] 56.6% | viability, T/C [7] 103% | viability, T/C [8] 89.8% | viability, T/C [9] 71.6% | viability, T/C [10] 69.6% | viability, T/C [11] 63.4% | viability, T/C [31] 61.6% | viability, T/C [13] 94% | viability, T/C [14] 84.7% | viability, T/C [15] 70.5% | viability, T/C [16] 67.9% | viability, T/C [17] 60.2% | viability, T/C [32] 57.3% | viability, T/C [19] 79.4% | viability, T/C [20] 73.4% | viability, T/C [21] 64% | viability, T/C [22] 56.2% | viability, T/C [23] 56.8% | viability, T/C [33] 48.6% | viability, T/C [25] 46% | viability, T/C [26] 40.2% | viability, T/C [27] 36.1% | viability, T/C [28] 33.6% | viability, T/C [29] 35.1% | viability, T/C [34] 27.1%
> 10 µM: IC50 (second compound 0.0316 µM) | IC50 (second compound 0.1 µM) | IC50 (second compound 0.316 µM)
9.45 µM: IC50 (second compound 1 µM)
< 0.0316 µM: IC50 (second compound 3.16 µM)

CCNC(=O)CC1N=C(c2ccc(Cl)cc2)c2cc(OC)ccc2-n2c(C)nnc21 (stereo not given) + C=CC(=O)N1CCN(c2nc(OCC3CCCN3C)nc3c2CCN(c2cccc4cccc(C)c24)C3)CC1CC#N
3.55 µM: IC50 (second compound 0.0316 µM)
< 0.0316 µM: IC50 (second compound 3.16 µM)
0.835 µM: IC50 (second compound 0.316 µM)
1.18 µM: IC50 (second compound 0.1 µM)
0.855 µM: IC50 (second compound 1 µM)
inactive: viability, T/C [1] 110% | viability, T/C [2] 98.9% | viability, T/C [3] 74.7% | viability, T/C [4] 63.9% | viability, T/C [5] 49.9% | viability, T/C [30] 44.8% | viability, T/C [7] 102% | viability, T/C [8] 89.1% | viability, T/C [9] 64.8% | viability, T/C [10] 51% | viability, T/C [11] 46.3% | viability, T/C [31] 45.7% | viability, T/C [13] 118% | viability, T/C [14] 105% | viability, T/C [15] 63.5% | viability, T/C [16] 50.4% | viability, T/C [17] 45% | viability, T/C [32] 42.4% | viability, T/C [19] 87.2% | viability, T/C [20] 82.7% | viability, T/C [21] 66.5% | viability, T/C [22] 46.5% | viability, T/C [23] 45% | viability, T/C [33] 39.5% | viability, T/C [25] 49% | viability, T/C [26] 49.4% | viability, T/C [27] 39.2% | viability, T/C [28] 20.6% | viability, T/C [29] 29.3% | viability, T/C [34] 27.9%

Cn1nccc1Nc1nccc(-c2cc3c(s2)C(C)(C)N(CCN2CCOCC2)C3=O)n1 + C=CC(=O)N1CCN(c2nc(OCC3CCCN3C)nc3c2CCN(c2cccc4cccc(C)c24)C3)CC1CC#N
0.421 µM: IC50 (second compound 1 µM)
active: viability, T/C [34] 9.26%
inactive: viability, T/C [1] 98.1% | viability, T/C [2] 81% | viability, T/C [3] 57.7% | viability, T/C [4] 43.8% | viability, T/C [5] 34% | viability, T/C [30] 29.6% | viability, T/C [7] 97.5% | viability, T/C [8] 78.4% | viability, T/C [9] 58% | viability, T/C [10] 39.5% | viability, T/C [11] 32.8% | viability, T/C [31] 31.8% | viability, T/C [13] 87.2% | viability, T/C [14] 72.8% | viability, T/C [15] 48.2% | viability, T/C [16] 38.2% | viability, T/C [17] 31.4% | viability, T/C [32] 29.2% | viability, T/C [19] 75.5% | viability, T/C [20] 69.4% | viability, T/C [21] 55% | viability, T/C [22] 36.1% | viability, T/C [23] 29.6% | viability, T/C [33] 28.2% | viability, T/C [25] 45.8% | viability, T/C [26] 32.2% | viability, T/C [27] 25.5% | viability, T/C [28] 18.1% | viability, T/C [29] 14.7%
0.315 µM: IC50 (second compound 0.316 µM)
0.601 µM: IC50 (second compound 0.0316 µM)
< 0.0316 µM: IC50 (second compound 3.16 µM)
0.506 µM: IC50 (second compound 0.1 µM)

CC(=O)OC12COC1CC(O)C1(C)C(=O)C(O)C3=C(C)C(OC(=O)C(O)C(NC(=O)OC(C)(C)C)c4ccccc4)CC(O)(C(OC(=O)c4ccccc4)C21)C3(C)C (stereo not given) + CC1OCC2(CCN(c3cnc(Sc4ccnc(N)c4Cl)c(N)n3)CC2)C1N
> 3.16 µM: IC50 (second compound 0.1 µM) | IC50 (second compound 0.316 µM) | IC50 (second compound 1 µM) | IC50 (second compound 3.16 µM) | IC50 (second compound 10 µM)
inactive: viability, T/C [6] 103% | viability, T/C [7] 110% | viability, T/C [8] 108% | viability, T/C [9] 117% | viability, T/C [10] 122% | viability, T/C [11] 121% | viability, T/C [12] 99.7% | viability, T/C [13] 100% | viability, T/C [14] 109% | viability, T/C [15] 114% | viability, T/C [16] 128% | viability, T/C [17] 116% | viability, T/C [18] 112% | viability, T/C [19] 120% | viability, T/C [20] 126% | viability, T/C [21] 122% | viability, T/C [22] 135% | viability, T/C [23] 138% | viability, T/C [24] 76.2% | viability, T/C [25] 86.7% | viability, T/C [26] 88.9% | viability, T/C [27] 93.6% | viability, T/C [28] 97.2% | viability, T/C [29] 97.8% | viability, T/C (second compound 10 µM, first compound 0.01 µM) 77.6% | viability, T/C (second compound 10 µM, first compound 0.0316 µM) 84.5% | viability, T/C (second compound 10 µM, first compound 0.1 µM) 87.4% | viability, T/C (second compound 10 µM, first compound 0.316 µM) 95.5% | viability, T/C (second compound 10 µM, first compound 1 µM) 91.5% | viability, T/C (second compound 10 µM, first compound 3.16 µM) 103%
